± gives the expanded uncertainty stated by the source.
Experiments:
[1] = xn = mol fraction of the nth substance listed; details: 293.15 K, 101 kPa, Liquid, Capillary tube (Ostwald / Ubbelohde) method
[2] = excess molar enthalpy (molar enthalpy of mixing); xn = mol fraction of the nth substance listed; details: 101 kPa, Liquid
[3] = Liquid, Closed cell (Static) method

A viscosity ([1]; x2 = 0.0272) of 5850 mPa·s, a viscosity ([1]; x2 = 0.382) of 940 ± 440 mPa·s and a viscosity ([1]; x2 = 0.546) of 336 ± 94 mPa·s were found for CC(O)C(=O)[O-].C[N+](C)(C)CCO [choline lactate] + O in this work. It also gave a viscosity ([1]; x2 = 0.731) of 75 ± 10 mPa·s, a viscosity ([1]; x2 = 0.878) of 12.5 ± 1.1 mPa·s and a viscosity ([1]; x2 = 0.915) of 6.5 ± 0.4 mPa·s. For the same molecule, the viscosity ([1]; x2 = 0.941) was 3.9 ± 0.3 mPa·s, the excess molar enthalpy ([2]; 303.15 K, x2 = 0.1585) was -3.92 ± 0.32 kJ/mol and the excess molar enthalpy ([2]; 303.15 K, x2 = 0.2269) was -6.32 ± 0.51 kJ/mol. It also gave an excess molar enthalpy ([2]; 303.15 K, x2 = 0.3051) of -8.53 ± 0.69 kJ/mol, an excess molar enthalpy ([2]; 303.15 K, x2 = 0.3528) of -10.1 ± 0.81 kJ/mol and an excess molar enthalpy ([2]; 303.15 K, x2 = 0.4853) of -14 ± 1.1 kJ/mol. The excess molar enthalpy ([2]; 303.15 K, x2 = 0.671) was -17.2 ± 1.4 kJ/mol, the excess molar enthalpy ([2]; 303.15 K, x2 = 0.8719) was -18.3 ± 1.5 kJ/mol and the excess molar enthalpy ([2]; 303.15 K, x2 = 0.9078) was -14.8 ± 1.2 kJ/mol. For the same molecule, the excess molar enthalpy ([2]; 303.15 K, x2 = 0.9751) was -7.84 ± 0.64 kJ/mol, the excess molar enthalpy ([2]; 303.15 K, x2 = 0.9878) was -2.53 ± 0.21 kJ/mol and the excess molar enthalpy ([2]; 313.15 K, x2 = 0.1687) was -3.02 ± 0.25 kJ/mol. It also gave an excess molar enthalpy ([2]; 313.15 K, x2 = 0.2123) of -4.59 ± 0.38 kJ/mol, an excess molar enthalpy ([2]; 313.15 K, x2 = 0.3065) of -6.56 ± 0.53 kJ/mol and an excess molar enthalpy ([2]; 313.15 K, x2 = 0.3943) of -8.84 ± 0.71 kJ/mol. The excess molar enthalpy ([2]; 313.15 K, x2 = 0.5019) was -10.9 ± 0.88 kJ/mol, the excess molar enthalpy ([2]; 313.15 K, x2 = 0.603) was -12.1 ± 0.98 kJ/mol and the excess molar enthalpy ([2]; 313.15 K, x2 = 0.738) was -13.8 ± 1.1 kJ/mol. For the same molecule, the excess molar enthalpy ([2]; 313.15 K, x2 = 0.8794) was -14.6 ± 1.2 kJ/mol, the excess molar enthalpy ([2]; 313.15 K, x2 = 0.9535) was -10.3 ± 0.83 kJ/mol and the excess molar enthalpy ([2]; 313.15 K, x2 = 0.9769) was -6.48 ± 0.53 kJ/mol. For the same molecule, the excess molar enthalpy ([2]; 323.15 K, x2 = 0.16) was -1.54 ± 0.13 kJ/mol, the excess molar enthalpy ([2]; 323.15 K, x2 = 0.2662) was -2.72 ± 0.23 kJ/mol and the excess molar enthalpy ([2]; 323.15 K, x2 = 0.331) was -3.58 ± 0.29 kJ/mol. The excess molar enthalpy ([2]; 323.15 K, x2 = 0.5059) was -6.47 ± 0.53 kJ/mol, the excess molar enthalpy ([2]; 323.15 K, x2 = 0.6257) was -9 ± 0.73 kJ/mol and the excess molar enthalpy ([2]; 323.15 K, x2 = 0.7785) was -10.9 ± 0.88 kJ/mol. The excess molar enthalpy ([2]; 323.15 K, x2 = 0.8805) was -8.76 ± 0.71 kJ/mol, the excess molar enthalpy ([2]; 323.15 K, x2 = 0.9555) was -4.6 ± 0.38 kJ/mol and the excess molar enthalpy ([2]; 323.15 K, x2 = 0.9884) was -1 ± 0.088 kJ/mol.

With O [water] the “vapor or sublimation pressure” value ([3]; 303.15 K) was 4.24 ± 0.33 kPa, the “vapor or sublimation pressure” value ([3]; 313.15 K) was 7.38 ± 0.33 kPa and the “vapor or sublimation pressure” value ([3]; 323.15 K) was 12.34 ± 0.35 kPa.

From the NIST ThermoML archive (doi:10.1021/je7000232)
